The source made the active and inactive calls.
Legend:
[1] = system: Mus musculus; assay: In vivo effect on PPAR signaling in tyloxapol-induced Kunming mouse model of hyperlipidemia assessed as decrease in PPARgamma expression in liver at 50 to 100 mg/kg, po measured after 24 hrs by Western blot analysis; type: functional, organism-based; conditions: dose 50-100 mg/kg
[2] = system: Mus musculus; assay: In vivo induction of AMPK in tyloxapol-induced Kunming mouse model of hyperlipidemia assessed as increase in CPT-1A phosphorylation in liver at 50 to 100 mg/kg, po measured after 24 hrs by Western blot analysis; type: functional, organism-based; conditions: dose 50-100 mg/kg
[3] = system: Mus musculus; assay: Hypolipidemic activity in tyloxapol-induced Kunming mouse model of hyperlipidemia assessed as kidney index at 50 mg/kg, po measured after 24 hrs (reference value: 11.20 +/- 0.58); type: functional
[4] = system: 3T3-L1; assay: Cytotoxicity against mouse 3T3-L1 cells assessed as reduction in cell viability by MTT assay; type: cell-based
[5] = system: Mus musculus; assay: Hypolipidemic activity in tyloxapol-induced Kunming mouse model of hyperlipidemia assessed as reduction in fatty liver phenotype at 50 to 100 mg/kg, po measured after 24 hrs; type: functional, organism-based; conditions: dose 50-100 mg/kg
[6] = system: 3T3-L1; assay: Hypolipidemic activity in mouse 3T3-L1 mature adipocytes assessed as reduction in lipid content at 15 uM by Oil Red O staining based assay relative to control; type: functional; parameters: scale not given: the % may be the effect or the level left
[7] = system: HepG2; assay: Hypolipidemic activity in oleic, palmitic, linoleic and arachidonic acid 29:47:18:6 (v/v)-induced hyperlipidemia in human HepG2 cells assessed as reduction in lipid content at 7.5 uM by Oil Red O staining based assay relative to control; type: functional; parameters: scale not given: the % may be the effect or the level left
[8] = system: Mus musculus; assay: In vivo effect on PPAR signaling in tyloxapol-induced Kunming mouse model of hyperlipidemia assessed as decrease in PPARgamma expression in white adipose tissue at 50 to 100 mg/kg, po measured after 24 hrs by Western blot analysis; type: functional, organism-based; conditions: dose 50-100 mg/kg
[9] = system: Mus musculus; assay: Hypolipidemic activity in tyloxapol-induced Kunming mouse model of hyperlipidemia assessed as reduction in serum LDL level administered orally measured after 24 hrs; type: functional, organism-based
[10] = system: Mus musculus; assay: Hypolipidemic activity in tyloxapol-induced Kunming mouse model of hyperlipidemia assessed as reduction in serum triglyceride level administered orally measured after 24 hrs; type: functional, organism-based
[11] = system: HepG2; assay: Hypolipidemic activity in oleic, palmitic, linoleic and arachidonic acid 29:47:18:6 (v/v)-induced hyperlipidemia in human HepG2 cells assessed as reduction in triglyceride content; type: functional, cell-based
[12] = system: Mus musculus; assay: Hypolipidemic activity in tyloxapol-induced Kunming mouse model of hyperlipidemia assessed as reduction in serum total cholesterol level administered orally measured after 24 hrs; type: functional, organism-based
[13] = system: Mus musculus; assay: Hypolipidemic activity in tyloxapol-induced Kunming mouse model of hyperlipidemia assessed as perirenal white adipose tissue index at 50 mg/kg, po measured after 24 hrs (reference value: 18.14 +/- 1.44); type: functional
[14] = system: Mus musculus; assay: Hypolipidemic activity in tyloxapol-induced Kunming mouse model of hyperlipidemia assessed as increase in appearance of hepatic lobules at 50 to 100 mg/kg, po measured after 24 hrs by Oil Red O staining based assay; type: functional, organism-based; conditions: dose 50-100 mg/kg
[15] = system: Mus musculus; assay: In vivo induction of AMPK in tyloxapol-induced Kunming mouse model of hyperlipidemia assessed as increase in AKT phosphorylation in liver at 50 to 100 mg/kg, po measured after 24 hrs by Western blot analysis; type: functional, organism-based; conditions: dose 50-100 mg/kg
[16] = system: Mus musculus; assay: Hypolipidemic activity in tyloxapol-induced Kunming mouse model of hyperlipidemia assessed as perirenal white adipose tissue index at 100 mg/kg, po measured after 24 hrs (reference value: 18.14 +/- 1.44); type: functional
[17] = system: Mus musculus; assay: In vivo effect on PPAR signaling in tyloxapol-induced Kunming mouse model of hyperlipidemia assessed as increase in PPARalpha expression in white adipose tissue at 50 to 100 mg/kg, po measured after 24 hrs by Western blot analysis; type: functional, organism-based; conditions: dose 50-100 mg/kg
[18] = system: Mus musculus; assay: In vivo induction of AMPK in tyloxapol-induced Kunming mouse model of hyperlipidemia assessed as increase in ACC phosphorylation in white adipose tissue at 50 to 100 mg/kg, po measured after 24 hrs by Western blot analysis; type: functional, organism-based; conditions: dose 50-100 mg/kg
[19] = system: 3T3-L1; assay: Hypolipidemic activity in mouse 3T3-L1 preadipocytes assessed as reduction in lipid content at 5 uM by Oil Red O staining based assay relative to control; type: functional; parameters: scale not given: the % may be the effect or the level left
[20] = system: Mus musculus; assay: Hypolipidemic activity in tyloxapol-induced Kunming mouse model of hyperlipidemia assessed as reduction in liver fibrosis at 50 to 100 mg/kg, po measured after 24 hrs by Masson's trichrome staining based assay; type: functional, organism-based; conditions: dose 50-100 mg/kg
[21] = system: Mus musculus; assay: In vivo effect on PPAR signaling in tyloxapol-induced Kunming mouse model of hyperlipidemia assessed as increase in mTOR phosphorylation in liver administered orally measured after 24 hrs by Western blot analysis; type: functional, organism-based
[22] = system: Mus musculus; assay: Hypolipidemic activity in tyloxapol-induced Kunming mouse model of hyperlipidemia assessed as reduction in liver total cholesterol level administered orally measured after 24 hrs; type: functional, organism-based
[23] = system: Mus musculus; assay: Hypolipidemic activity in tyloxapol-induced Kunming mouse model of hyperlipidemia assessed as reduction in serum ALT level administered orally measured after 24 hrs; type: functional, organism-based
[24] = system: Mus musculus; assay: Hypolipidemic activity in tyloxapol-induced Kunming mouse model of hyperlipidemia assessed as reduction in liver triglyceride level administered orally measured after 24 hrs; type: functional, organism-based
[25] = system: Mus musculus; assay: In vivo induction of AMPK in tyloxapol-induced Kunming mouse model of hyperlipidemia assessed as increase in AMPKalpha phosphorylation in liver at 50 to 100 mg/kg, po measured after 24 hrs by Western blot analysis; type: functional, organism-based; conditions: dose 50-100 mg/kg
[26] = system: Mus musculus; assay: Hypolipidemic activity in tyloxapol-induced Kunming mouse model of hyperlipidemia assessed as increase in serum SOD level at 100 mg/kg, po measured after 24 hrs; type: functional, organism-based
[27] = system: 3T3-L1; assay: Activation of AMPK in mouse 3T3-L1 matured adipocytes assessed as increase in ACC phosphorylation at 1 uM by Western blot analysis relative to control; type: cell-based; conditions: filed as activator
[28] = system: HepG2; assay: Hypolipidemic activity in oleic, palmitic, linoleic and arachidonic acid 29:47:18:6 (v/v)-induced hyperlipidemia in human HepG2 cells assessed as reduction in lipid content at 10 uM by Oil Red O staining based assay relative to control; type: functional; parameters: scale not given: the % may be the effect or the level left
[29] = system: Mus musculus; assay: In vivo induction of AMPK in tyloxapol-induced Kunming mouse model of hyperlipidemia assessed as increase in AMPKalpha phosphorylation in white adipose tissue at 50 to 100 mg/kg, po measured after 24 hrs by Western blot analysis; type: functional, organism-based; conditions: dose 50-100 mg/kg
[30] = system: HepG2; assay: Cytotoxicity against human HepG2 cells assessed as reduction in cell viability at 10 to 20 uM by MTT assay; type: cell-based; conditions: hepg2, 20 µM, dose 10-20 µM
[31] = system: 3T3-L1; assay: Hypolipidemic activity in mouse 3T3-L1 mature adipocytes assessed as reduction in triglyceride content; type: functional, cell-based
[32] = system: Mus musculus; assay: In vivo induction of AMPK in tyloxapol-induced Kunming mouse model of hyperlipidemia assessed as increase in AKT phosphorylation in white adipose tissue at 50 to 100 mg/kg, po measured after 24 hrs by Western blot analysis; type: functional, organism-based; conditions: dose 50-100 mg/kg
[33] = system: Mus musculus; assay: In vivo induction of AMPK in tyloxapol-induced Kunming mouse model of hyperlipidemia assessed as increase in CPT-1A phosphorylation in white adipose tissue at 50 to 100 mg/kg, po measured after 24 hrs by Western blot analysis; type: functional, organism-based; conditions: dose 50-100 mg/kg
[34] = system: Mus musculus; assay: Hypolipidemic activity in tyloxapol-induced Kunming mouse model of hyperlipidemia assessed as reduction in liver MPO level at 50 to 100 mg/kg, po measured after 24 hrs; type: functional, organism-based; conditions: dose 50-100 mg/kg

CC(C)=CCC/C(C)=C/Cc1c(O)cc(O)c(C(=O)/C=C/c2ccc(O)cc2)c1O
active: Activity [1] | Activity [2] | Activity [5] | Activity [8] | Activity [9] Dose-dependent effect | Activity [10] Dose-dependent effect | Activity [11] Dose-dependent effect | Activity [12] Dose-dependent effect | Activity [14] | Activity [15] | Activity [17] | Activity [18] | Activity [20] | Activity [21] Dose-dependent effect | Activity [22] Dose-dependent effect | Activity [23] Dose-dependent effect | Activity [24] Dose-dependent effect | Activity [25] | Activity [26] | Activity [29] | Activity [31] Dose-dependent effect | Activity [32] | Activity [33] | Activity [34]
9.83: Activity_index [16]
9.52: Activity_index [13]
Non-Toxic: Activity [4] | Activity [30]
72.12%: Activity [6]
9.46: Activity_index [3]
260%: Activity [27]
43.86%: Activity [7]
49.29%: Activity [19]
54.38%: Activity [28]

— ChEMBL document CHEMBL4765421, “Synthesis of natural 3'-Prenylchalconaringenin and biological evaluation of ameliorating non-alcoholic fatty liver disease and metabolic syndrome” (Eur J Med Chem, 2020)
